Patent publication US20170218389A1, “METHODS AND COMPOSITIONS FOR STOMATA REGULATION, PLANT IMMUNITY, AND DROUGHT TOLERANCE” (priority 2016, published 2017)
Values belong to the molecule of their own block, whether it stands above or below them.

Tests used:
[1] = tested on: stomata of Arabidopsis epidermal peels; experiment: Stomatal closure / aperture in epidermal peels of NHR1A lines; format: cell-based; conditions: ABA 50 μM, flg22 20 μM
Procedure: FIG. 6A, FIG. 6B and FIG. 6C show ABA, PAMPs, host and nonhost bacterial pathogens induce AtNHR1A, AtNHR1B, and stomatal closure in an AtNHR1A-dependent manner. Histograms are depicted of AtNHR1A (FIG. 6A) and AtNHR1B (FIG. 6B) gene expression in Arabidopsis wild-type (Col-0) plants individually syringe-infiltrated with ABA (10 μM), Flg22 (20 μM), or LPS (100 ng), or flood-inoculated with the pathogens P. syringae pv. maculicola (Psm) and P. syringae pv. tabaci (Pst) at 1×10^4 cfu/mL. Bars indicate relative gene expression in comparison with the housekeeping gene UBQ5 and in relation to the 0 hr time-point. Different letters above bars indicate a statistically significant difference within a treatment (Student's t-test; p-value=0.05). Error bars represent the standard deviation of three biological replicates (three technical replicates for each biological replicate). Histograms are depicted quantifying stomatal aperture size from epidermal peels incubated with ABA (10 μM or 50 μM), Flg22 (20 μM), LPS (100 ng) and the nonhost pathogen Pst (1×10^6 cfu/mL), where aperture size was measured after 30 min for ABA, 1 hr for flg22 and 3 hrs for Pst (FIG. 6C). […]

AtNHR1A [2] = conditions: 4 hrs of 100 μM ABA, cited from earlier work
AtNHR1A [3] = experiment: qRT-PCR of AtNHR1A expression in treated wild-type Col-0 plants; format: in vivo, Arabidopsis; conditions: Col-0, syringe-infiltrated ABA 10 μM, 6 hpt, relative to 0 hr
Procedure: (§1) Total RNA was purified from Arabidopsis leaves infiltrated with water (mock control), nonhost pathogen P. syringae pv. tabaci (Psta), or host pathogen P. syringae pv. maculicola (Psm). Total RNA was extracted using TRIzol (Invitrogen, NT) and 2 treated or inoculated leaves were pooled to represent one biological replicate. Total RNA was treated with DNase I (Invitrogen, NY), and 1 μg RNA was used to generate cDNA using Superscript III reverse transcriptase (Invitrogen, NY) and oligo d(T)15-20 primers. The cDNA (1:20) was then used for qRT-PCR using Power SYBR Green PCR master mix (Applied Biosystems, Foster City, Calif., USA) with an ABI Prism 7900 HT sequence detection system (Applied Biosystems). Primers specific for AtUBQ5 were used to normalize small differences in template amounts. Average Cycle Threshold (CT) values calculated using Sequence Detection Systems (version 2.2.2; Applied Biosystems) from duplicate samples were used to determine the fold expression relative to controls.
(§2) The gene expression patterns of AtNHR1A and AtNHR1B were determined by quantitative RT-PCR (qRT-PCR) after treating wild-type Col-0 plants with ABA, PAMPs (Flg22 and LPS), host (P. syringae pv. maculicola) and nonhost (P. syringae pv. tabaci) bacterial pathogens. […]

AtNHR1B [4] = conditions: both mesophyll cells and guard cells, 4 hrs of 100 μM ABA; cited from earlier work
[5] = tested on: stomata of Arabidopsis epidermal peels; experiment: Stomatal aperture in epidermal peels of Col-0 and AtGCN4 overexpressor lines; format: cell-based; conditions: both wild-type Col-0 and AtGCN4 overexpressor lines, after ABA treatment
Procedure: A representative histogram is depicted of stomatal aperture in Arabidopsis plant epidermal peels from wild-type Col-0 and GCN4-overexpressing (AtGCN4-OE6 and AtGCN4-OE16) lines measured 4 hours after treatment with MES buffer, COR, ABA, or COR+ABA.
Upon detection of PAMPs, stomata rapidly closes to prevent entry of the pathogen into apoplast (Melotto et al., 2006; Lee et al., 2013). […] Epidermal peels of AtGCN4 overexpressing lines were used to investigate whether stomata reopen after treatment with MES buffer (stomata opening buffer; control) or the host pathogen P. syringae pv. tomato DC3000. In wild-type Col-0, stomata reopened 3 hpi, while in the AtGCN4 overexpressor lines (AtGCN4-OE6 and AtGCN4-OE16), stomata remained closed even 4 hpi with P. syringae pv. tomato DC3000. Stomatal aperture was measured after ABA and coronatine treatments in order to investigate stomatal function in AtGCN4 overexpressor lines. ABA treatment induces stomatal closure in plants. After ABA treatment, the stomatal aperture size was reduced due to closing in both wild-type Col-0 and the AtGCN4 overexpressor lines.

AtNHR1B [6] = experiment: qRT-PCR of AtNHR1B expression in treated wild-type Col-0 plants; format: in vivo, Arabidopsis; conditions: Col-0, 12 hpt; ABA 10 μM, Flg22 20 μM
Procedure: as §1, §2

AtNHR1A [7] = experiment: GTPase activity of AtNHR1A (GTP hydrolysis, phosphate release); format: biochemical, Arabidopsis
Procedure: FIG. 12A, FIG. 12B and FIG. 12C show NHR1A has GTPase activity and interacts with JAZ9 in Arabidopsis. A representative histogram is depicted showing that nhr1a is less sensitive to JA than Col-0, where roots were measured 7 days after seeds of different Arabidopsis lines were grown in MS medium plates with or without 30 μM of MeJA (FIG. 12A). Data represents three independent experiments with at least 10 seedlings per line. Bars represent the mean±SD. Asterisks indicate statistical significance (Student's t-test; p-value <0.05). A representative scatter-plot and histogram are depicted showing that the GTPase activity of NHR1A is reduced by JAZ9 as measured by the rate of phosphate (Pi) release when NHR1A protein (1 μM) was pre-loaded with GTP (1 mM) and incubated without (FIG. 12B) or with 0.25-1 μM of JAZ9 (FIG. 12C). Data represents three independent experiments. Bars represent the mean±SE.
To further examine the role of AtNHR1A, GTPase activity of AtNHR1A was assessed using purified protein in a fluorescence-based assay (Willard et al., 2005). […] This finding was quantified by measuring the phosphate (Pi) release, using the ENZchek® phosphate assay kit (Invitrogen®), after incubating NHR1A with different concentrations of JAZ9. […]
GTP binding and hydrolysis by AtNHR1A protein was measured using GTP-BODIPY-FL in real-time fluorescence assays in the presence of absence of JAZ9 protein. […]

[8] = molecular target: T1, COI1 (Coronatine Insensitive 1) (Arabidopsis, UniProt O04197 1-592, limits assumed); experiment: FAST (fast agro-mediated seedling transformation) assay in Arabidopsis Col-0 and nhr1a seedlings
T1 construct: Expressed in Arabidopsis seedlings in the FAST assay; construct not described
T1 sequence (looked up): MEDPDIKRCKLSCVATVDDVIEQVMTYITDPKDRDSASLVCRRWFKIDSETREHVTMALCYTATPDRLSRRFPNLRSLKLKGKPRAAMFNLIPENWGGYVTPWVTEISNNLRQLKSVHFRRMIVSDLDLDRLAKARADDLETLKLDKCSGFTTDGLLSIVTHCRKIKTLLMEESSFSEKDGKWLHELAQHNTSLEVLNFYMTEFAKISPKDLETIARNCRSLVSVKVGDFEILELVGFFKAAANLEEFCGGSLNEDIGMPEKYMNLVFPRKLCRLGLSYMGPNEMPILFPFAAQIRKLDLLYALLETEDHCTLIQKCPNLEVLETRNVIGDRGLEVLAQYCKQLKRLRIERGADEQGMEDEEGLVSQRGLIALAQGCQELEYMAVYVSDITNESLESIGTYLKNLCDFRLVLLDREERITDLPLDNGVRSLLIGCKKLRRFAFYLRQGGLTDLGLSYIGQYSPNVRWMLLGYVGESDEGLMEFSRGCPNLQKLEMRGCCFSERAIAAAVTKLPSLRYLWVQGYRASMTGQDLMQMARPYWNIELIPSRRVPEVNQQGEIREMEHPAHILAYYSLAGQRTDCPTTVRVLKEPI
Description: Several JAZ proteins, such as JAZ1, JAZ2, JAZ3, JAZ6, JAZ9 and JAZ10, have been known to directly interact with COI1 in Arabidopsis (Chini et al., 2009; Melotto et al., 2008; Thines et al., 2007; Yan et al., 2009; Zhou et al., 2013). As shown above, NHR1A directly interacts with JAZ1, JAZ3, JAZ4, JAZ5, JAZ9 and JAZ12. Without being limited by theory, the present inventors hypothesize that the function of JAZ9 can be modified by binding NHR1A, and this may affect COI1-mediated signaling for stomatal closure. The fast agro-mediated seedling transformation (FAST) assay was used in Col-0 and nhr1a to investigate whether NHR1A was required for JAZ9-COI1 interaction.

Molecule: CC1=CC(=O)CC(C)(C)[C@@]1(O)/C=C/C(C)=C\C(=O)O [ABA, abscisic acid]
Stomatal response ([1]; Atnhr1a mutant): remained open | Stomatal response ([1]; Col-0, NHR1A-OE and AtNHR1A-comp lines): closed stomata | AtNHR1A transcripts vs water-treated control (AtNHR1A [2]; Col-0 guard cells): only a slight increase | AtNHR1A transcript level vs water-treated control (AtNHR1A [2]; Col-0 mesophyll cells): approximately threefold | AtNHR1A induction (AtNHR1A [3]): twofold | AtNHR1B transcripts vs water treatment (AtNHR1B [4]): decreased | Stomatal aperture size [5]: reduced | AtNHR1B expression (AtNHR1B [6]): highly induced

Reduction in phosphate release compared with AtNHR1A without JAZ9 (AtNHR1A [7]; 0.75 μM and 1 μM of JAZ9, NHR1A 1 μM pre-loaded with GTP 1 mM): 20% | Rate of GTP hydrolysis of AtNHR1A (AtNHR1A [7]; in the presence of JAZ9): significantly decreased | binding result [8]: binds
B1: Jasmonate-Zim-Domain Protein 9 (JAZ9, At1g70700), full-length (other, Arabidopsis, UniProt Q8W4J8 1-267, looked up)
chain: MERDFLGLSDKQYLSNNVKHEVNDDAVEERGLSTKAAREWGKSKVFATSSFMPSSDFQEAKAFPGAYQWGSVSAANVFRRCQFGGAFQNATPLLLGGSVPLPTHPSLVPRVASSGSSPQLTIFYGGTISVFNDISPDKAQAIMLCAGNGLKGETGDSKPVREAERMYGKQIHNTAATSSSSATHTDNFSRCRDTPVAATNAMSMIESFNAAPRNMIPSVPQARKASLARFLEKRKERLMSAMPYKKMLLDLSTGESSGMNYSSTSPT
notes: GAL4 domain fusion in yeast two-hybrid, EYFP-half fusion in BiFC/FAST; the construct of the JAZ9 protein added to the GTPase assays is not described
